The text below walks through data of patent publication US6645984B2, “Arylisoxazoline derivatives, processes for their preparation and their use as pesticides” (Aventis CropScience GmbH, priority 2001, dated 2003).

The experiment concerns Spodoptera litoralis. As to the kind of experiment: whole plant or invertebrate. Format: in vivo. As to conditions: 96 h, read-out: larvae mortality. The method, then: Nutrient medium (freeze-dried cube) is dipped into an aqueous solution of the formulated preparation to be examined and then placed into a Petri dish. Ten L2 larvae of the Egyptian cotton leaf worm (Spodoptera litoralis) are then added. The Petri dish is then closed with a lid. The effect of the preparation on the larvae is determined after 4 days of storage at about 23° C. At a concentration of 500 ppm (based on the content of active compound), the preparations of Example Nos. 5, 9, 12, 28, 29, 30, 35, 39, 40, 41, 42, 43, 45, 46, 48, 52, 63, 87, 90, 91, 92, 94, 97, 98, 99, 100, 103, 107, 113, 117, 120, 125, 566, 567, 573, 574, 589, 600, 613, 614, 619, 626 effect a larvae mortality of 80-100%.

The mortality is the percentage killed.

For the molecule `CC1=NOC(c2ccc(C3COC(c4c(F)cccc4F)=N3)cc2)C1` (stereo not shown) [Example 566, 2-(2,6-Difluorophenyl)-4-(4-(3-methylisoxazolin-5-yl)phenyl)oxazoline], the mortality at 500 ppm was in the range of 80 to 100%.
